Consider eleven molecules from ChEMBL document CHEMBL1201862, “PubChem BioAssay data set” (2004).

SMILES strings stand for the structures.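 96-well plates; 48 h exposure; 5 concentrations. Endpoints by linear interpolation between flanking doses. Not reached: highest tested concentration assigned. GI50 marks 50% less growth.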 Activity calls are given as the source filed them. Cut-off read from the data, not from the text of the source: active = GI50 up to about 1.1 µM and inactive = higher.

Test systems include DU-145; HCT-15; HOP-62; HOP-92; HT-29; IGROV-1; KM12; MDA-MB-435; MDA-N; MOLT-4; NCI/ADR-RES; OVCAR-3; SK-MEL-2; SK-MEL-5; SW-620; TK-10; UACC-62; UO-31; NCI-H522.
Common to all, as to test: NCI tumour cell line growth inhibition, 48 h

On to `COc1nncc2[nH]c(-c3ccccc3)cc12`, for which the GI50 is 90.4 µM (inactive) in the experiment with DU-145; 53 µM in the experiment on HCT-15; > 100 µM (inactive) with HOP-62; > 100 µM (inactive) in the experiment with HOP-92; > 100 µM (inactive) in the experiment on HT-29; > 100 µM (inactive) with IGROV-1. The GI50 with KM12 was > 100 µM (inactive); in the experiment with MDA-MB-435 it was 73.3 µM (inactive); in the experiment with MDA-N, 62.4 µM (inactive); in the experiment with MOLT-4, 0.0652 µM (active); with NCI/ADR-RES it was 76.2 µM (inactive); with OVCAR-3, 83.2 µM (inactive). Further, the GI50 is 33.9 µM (inactive) in the experiment on SK-MEL-2; 67.8 µM (inactive) in the experiment with SK-MEL-5; > 100 µM (inactive) with SW-620; 53.1 µM (inactive) in the experiment on TK-10; 42.3 µM (inactive) with UACC-62; 51.2 µM (inactive) in the experiment with UO-31.

On to `CC(C)CC(NC=O)C(=O)NC(Cc1ccccc1)NC(=O)CNC(=O)C(C)NC(=O)C(N)Cc1ccc(O)cc1` (centres undefined), for which the GI50 with DU-145 was > 100 µM (inactive); in the experiment with HCT-15 it was over 100 µM; with HOP-62 it was > 100 µM (inactive); with HOP-92, > 100 µM (inactive); in the experiment on HT-29, > 100 µM (inactive); in the experiment with IGROV-1, > 100 µM (inactive). Also, the GI50 in the experiment on KM12, with MDA-MB-435, in the experiment on MDA-N, in the experiment on MOLT-4, in the experiment on NCI-H522 and in the experiment with NCI/ADR-RES was > 100 µM (inactive) throughout. Moreover, the GI50 in the experiment on OVCAR-3, with SK-MEL-5, in the experiment with SW-620, in the experiment on TK-10, in the experiment on UACC-62 and with UO-31 was > 100 µM (inactive) throughout.

On to `CCOC(=O)c1c2ccccc2n2c(N)c(C(N)=O)nnc12`, for which the GI50 was > 100 µM (inactive) in the experiment with DU-145; 78.9 µM in the experiment on HCT-15; 17.3 µM (inactive) with HOP-62; > 100 µM (inactive) in the experiment on HT-29; 1.33 µM (inactive) in the experiment with IGROV-1; > 100 µM (inactive) in the experiment on KM12. The GI50 with MDA-MB-435 is > 100 µM (inactive); with MDA-N, > 100 µM (inactive); in the experiment on MOLT-4 it was > 100 µM (inactive); in the experiment with NCI-H522, 28.8 µM (inactive); in the experiment with NCI/ADR-RES, 35.3 µM (inactive); with OVCAR-3, > 100 µM (inactive). For the same molecule, the GI50 was 20.5 µM (inactive) with SK-MEL-2; 74.3 µM (inactive) with SK-MEL-5; > 100 µM (inactive) with SW-620; 11.3 µM (inactive) in the experiment on TK-10; 19.9 µM (inactive) in the experiment on UACC-62; 74.3 µM (inactive) in the experiment on UO-31.

Consider `O=C(CN1c2ccccc2Sc2ccccc21)N1CCNCC1`, for which the GI50 in the experiment with DU-145 is > 100 µM (inactive); in the experiment on HCT-15 it was over 100 µM; with HOP-62 it was > 100 µM (inactive); in the experiment with HOP-92, 29.5 µM (inactive); with HT-29 it was > 100 µM (inactive); in the experiment on IGROV-1 it was 71.4 µM (inactive). Moreover, the GI50 with KM12 was 64.4 µM (inactive); in the experiment on MDA-MB-435 it was > 100 µM (inactive); in the experiment with MDA-N it was > 100 µM (inactive); in the experiment on MOLT-4, 64.7 µM (inactive); in the experiment with NCI/ADR-RES, > 100 µM (inactive); in the experiment on OVCAR-3 it was > 100 µM (inactive). The GI50 in the experiment on SK-MEL-2 is > 100 µM (inactive); in the experiment with SK-MEL-5 it was 40.3 µM (inactive); in the experiment with SW-620, > 100 µM (inactive); with TK-10, > 100 µM (inactive); in the experiment with UACC-62, > 100 µM (inactive); with UO-31, 95.5 µM (inactive).

For `O=CC(O)C(O)C(O)C(O)COC(=O)NCCCCC(=O)C(F)(F)C(F)(F)C(F)(F)C(F)(F)C(F)(F)C(F)(F)C(F)(F)F` (centres undefined), the GI50 in the experiment with DU-145 is 47.6 µM (inactive); in the experiment on HCT-15, 50.2 µM; in the experiment with HOP-62, 23.6 µM (inactive); in the experiment on HOP-92 it was 13.2 µM (inactive); with HT-29, 32.7 µM (inactive); in the experiment on IGROV-1 it was 29.7 µM (inactive). Further, the GI50 is 19.1 µM (inactive) in the experiment on KM12; 24.2 µM (inactive) in the experiment on MDA-MB-435; 27.8 µM (inactive) in the experiment with MDA-N; 10.7 µM (inactive) in the experiment with MOLT-4; > 100 µM (inactive) in the experiment on NCI/ADR-RES; 47 µM (inactive) in the experiment on OVCAR-3. Besides, the GI50 with SK-MEL-2 was 27.6 µM (inactive); in the experiment with SK-MEL-5 it was 23.7 µM (inactive); in the experiment on SW-620, 19.9 µM (inactive); with TK-10, 70.5 µM (inactive); in the experiment on UACC-62 it was 15.9 µM (inactive); in the experiment with UO-31, > 100 µM (inactive).

As for `C=CCCC1(CCP(=O)(c2ccccc2)c2ccccc2)OCCO1`, the GI50 with DU-145 was > 100 µM (inactive); in the experiment on HCT-15 it was over 100 µM; in the experiment on HOP-62 it was > 100 µM (inactive); in the experiment with HT-29 it was > 100 µM (inactive); with IGROV-1, > 100 µM (inactive); in the experiment with KM12, > 100 µM (inactive). Further, the GI50 with MDA-MB-435 is > 100 µM (inactive); with MDA-N it was > 100 µM (inactive); in the experiment on MOLT-4, > 100 µM (inactive); in the experiment on NCI-H522 it was 64.3 µM (inactive); with NCI/ADR-RES, > 100 µM (inactive); in the experiment on OVCAR-3 it was > 100 µM (inactive). For the same molecule, the GI50 in the experiment on SK-MEL-2, in the experiment on SK-MEL-5, in the experiment on SW-620, with TK-10, in the experiment on UACC-62 and in the experiment with UO-31 was > 100 µM (inactive) each time.

Take `Cc1cc(C)c(-c2no/c(=N\S(=O)(=O)c3ccc(Cl)cc3)o2)c(C)c1`: the GI50 in the experiment with DU-145 is > 100 µM (inactive); with HCT-15, over 100 µM; in the experiment with HOP-62, > 100 µM (inactive); in the experiment on HT-29, > 100 µM (inactive); with IGROV-1 it was > 100 µM (inactive); with KM12, 57.9 µM (inactive). For the same molecule, the GI50 in the experiment on MDA-MB-435 is > 100 µM (inactive); in the experiment with MDA-N, > 100 µM (inactive); with MOLT-4, > 100 µM (inactive); in the experiment on NCI-H522 it was 28.6 µM (inactive); with NCI/ADR-RES, 87.3 µM (inactive); in the experiment on OVCAR-3, > 100 µM (inactive). Moreover, the GI50 is 34 µM (inactive) in the experiment with SK-MEL-2; 23.1 µM (inactive) in the experiment with SK-MEL-5; > 100 µM (inactive) in the experiment on SW-620; > 100 µM (inactive) in the experiment on TK-10; > 100 µM (inactive) in the experiment on UACC-62; > 100 µM (inactive) with UO-31.

In the case of `COc1nc(C)nc2c1ncn2Cc1ccccc1`, the GI50 was > 100 µM (inactive) in the experiment with DU-145; over 100 µM with HCT-15; > 100 µM (inactive) in the experiment on HOP-62; < 0.01 µM (active) in the experiment on HOP-92; > 100 µM (inactive) with HT-29; > 100 µM (inactive) in the experiment with IGROV-1. Besides, the GI50 with KM12, in the experiment with MDA-MB-435, with MDA-N, with NCI-H522, in the experiment on NCI/ADR-RES and in the experiment on OVCAR-3 was > 100 µM (inactive) throughout. In addition, the GI50 in the experiment on SK-MEL-5, in the experiment on SW-620, in the experiment with TK-10 and in the experiment with UACC-62 was > 100 µM (inactive) throughout.

On to `O=C(O)CCC(c1ccccc1)(c1ccccc1)c1ccccc1`, for which the GI50 with DU-145 is 17.2 µM (inactive); with HCT-15, 29.2 µM; in the experiment with HOP-62, 34.8 µM (inactive); with HOP-92, 13.8 µM (inactive); in the experiment with HT-29, 36.1 µM (inactive); in the experiment on KM12 it was 51.1 µM (inactive). In addition, the GI50 in the experiment on MDA-MB-435 was 33 µM (inactive); in the experiment on MDA-N, 30.3 µM (inactive); in the experiment on MOLT-4 it was 33.9 µM (inactive); in the experiment on NCI/ADR-RES, 36.5 µM (inactive); with OVCAR-3 it was 14.7 µM (inactive); with SK-MEL-2 it was 22.9 µM (inactive). The GI50 is 32 µM (inactive) in the experiment with SK-MEL-5; 39.8 µM (inactive) in the experiment with SW-620; 52.5 µM (inactive) in the experiment on TK-10; 27.4 µM (inactive) in the experiment with UACC-62; 38.9 µM (inactive) with UO-31.

Regarding `COc1cc(/C=C2\CC/C(=C\c3cc(OC)c(O)c(OC)c3)C2=O)cc(OC)c1O`, the GI50 was 2.21 µM (inactive) in the experiment on DU-145; 1.4 µM in the experiment with HCT-15; 3.13 µM (inactive) in the experiment with HOP-62; 10.4 µM (inactive) in the experiment with HT-29; 0.881 µM (active) with IGROV-1; 1.48 µM (inactive) in the experiment on KM12. Also, the GI50 with MDA-MB-435 was 1.39 µM (inactive); with MDA-N, 2.27 µM (inactive); in the experiment with MOLT-4, 1.02 µM (active); in the experiment on NCI-H522, 0.798 µM (active); with NCI/ADR-RES it was 2.79 µM (inactive); in the experiment with OVCAR-3, 2.2 µM (inactive). The GI50 is 0.667 µM (active) in the experiment with SK-MEL-2; 1.95 µM (inactive) in the experiment with SK-MEL-5; 1.88 µM (inactive) in the experiment on SW-620; 5.32 µM (inactive) with TK-10; 1.35 µM (inactive) with UACC-62; 3.43 µM (inactive) in the experiment with UO-31.

As for `C=C(C)[C@@H]1CC[C@]2(CO)CC[C@]3(C)[C@H](CC[C@@H]4[C@@]5(C)CC[C@H](O)C(C)(C)[C@@H]5CC[C@]43C)[C@@H]12` [BETULIN], the GI50 was 84.3 µM (inactive) in the experiment with DU-145; 42.6 µM in the experiment on HCT-15; 16.7 µM (inactive) in the experiment on HOP-62; 16.7 µM (inactive) in the experiment on HOP-92; 20.6 µM (inactive) in the experiment with HT-29; 34.8 µM (inactive) in the experiment on IGROV-1. Besides, the GI50 with KM12 is 9.71 µM (inactive); in the experiment on MDA-MB-435 it was 19.5 µM (inactive); with MDA-N, 45 µM (inactive); in the experiment with MOLT-4, 32.4 µM (inactive); with NCI-H522, 20.4 µM (inactive); with NCI/ADR-RES it was 30.4 µM (inactive). Besides, the GI50 in the experiment with OVCAR-3 is 28.2 µM (inactive); in the experiment with SK-MEL-5 it was 19.7 µM (inactive); with SW-620, 20.1 µM (inactive); in the experiment on TK-10 it was 17.1 µM (inactive); in the experiment with UO-31, 11.1 µM (inactive).
